Laboratory results reported in US12391664B2, “GluN2C/D subunit selective antagonists of the N-methyl-D-aspartate receptor” (Emory University, priority 2018, dated 2025).
pIC50: −log10 of the molar value. Where two headings read alike, the source gives them in different places.

Columns and labels:
Assay type in all cases: cell-based
[1] = target: T1, recombinant rat GluN1/GluN2A (Rattus norvegicus, UniProt P35439+Q00959); test: Two-electrode voltage-clamp recordings in Xenopus laevis oocytes, GluN2A; conditions: oocytes, 100 μM glutamate and 30 μM glycine
T1 construct: expressed in transfected cells; host or cells: Xenopus laevis oocytes injected with cRNA (GluN1:GluN2 ratio 1:2)
Procedure: (§1) All target compounds were evaluated for activity by the Traynelis laboratory at Emory University using two-electrode voltage-clamp recordings performed in Xenopus laevis oocytes expressing recombinant GluN2A-D subunits (Table 1). […] Two ester compounds 997-65 and 997-66 also performed no inhibition at GluN2A to GluN2D receptors. […] Consequently, for the compounds that Acker et al. already published, it was necessary to increase the concentration to 100 μM when collecting data for a concentration effect curve. […] Therefore, under this condition, we can only conclude that compound 997-67 remained potent at GluN2C/D-containing receptors, but its selectivity over GluN2A- and GluN2B-containing receptors could not be compared to 997-57. […] Finally, replacing the carboxylic acid to the bio-isostere amide yielded compounds 997-96 and 997-115, which dropped the potency 2- to 4-fold in comparison to their corresponding acids 997-74 and 997-114.
(§2) Two-electrode voltage-clamp recordings were performed in Xenopus laevis oocytes that were injected with mRNA to express recombinant rat GluN1/GluN2A, GluN1/GluN2B, GluN1/GluN2C, and GluN1/GluN2D. The recordings using unfertilized oocytes from Xenopus laevis were permitted by Emory University Institutional Animal Care and Use Committee (IACUC). An automatic injector (Nanoject II, Drummond Scientific) was used for cRNA injection using the pipettes filled with mineral oil. The cRNA that transcribed in vitro via the mMessage Machine kit (Ambion) was diluted with nuclease-free water, and then injected at GluN1/GluN2 with a ratio of 1:2. The oocytes were stored in Barth's solution that contained 88 mM NaCl, 5.0 mM Tris-HCl, 2.4 mM NaHCO3, 1.0 mM KCl, 0.84 mM MgSO4, 0.41 mM CaCl2, 0.33 mM Ca(NO3)2, 0.1 mg/ml gentamycin sulfate, 1.0 U/ml penicillin, and 1 μg/ml streptomycin at a pH of 7.4 and temperatures of 15-17° C. for two to five days before the two-electrode voltage-clamp recordings. When recording, the oocytes were placed in a perfusion chamber and continually washed with the recording solution comprised of 90 mM NaCl, 1.0 mM KCl, 0.50 mM BaCl2, 0.005 mM EDTA, and 10 mM HEPES at a pH of 7.4 and a temperature of 23° C. Glass electrodes with a tip resistance of 0.5 to 2.5 MΩ were obtained from thin-walled glass capillary tubes. Voltage electrodes and current electrodes were filled with 0.3 M and 3.0 M KCl, respectively. The recordings were executed with the oocytes membrane potential holding at −40 m V by an OC-725 amplifier (Warner Instrument Co). All compounds were dissolved in dimethyl sulfoxide (DMSO) as 20 mM stock solutions and future diluted to reach the desired concentration (0.05-0.5% (vol/vol) DMSO) in recording solution comprised of 30 μM glycine and 100 μM glutamate. Each compound was recorded 3-7 times in the least 4 oocytes from at least 2 different Xenopus laevis.
(§3) To evaluate the inhibition of compounds, the concentration-response curve was fitted with the average two-electrode voltage-clamp recording results with the equation
(§4) [formula] • where IC50 is the concentration of compounds that inhibit half maximal of the current response and N is the Hill slope.

[2] = target: T2, recombinant rat GluN1/GluN2B (Rattus norvegicus, UniProt P35439+Q00960); test: Two-electrode voltage-clamp recordings in Xenopus laevis oocytes, GluN2B; conditions: oocytes, 100 μM glutamate and 30 μM glycine
T2 construct: expressed in transfected cells; host or cells: Xenopus laevis oocytes injected with cRNA (GluN1:GluN2 ratio 1:2)
Procedure: as §1, §2, §3, §4

[3] = target: T3, recombinant rat GluN1/GluN2C (Rattus norvegicus, UniProt P35439+Q00961); test: Two-electrode voltage-clamp recordings in Xenopus laevis oocytes, GluN2C
T3 construct: expressed in transfected cells; host or cells: Xenopus laevis oocytes injected with cRNA (GluN1:GluN2 ratio 1:2)
Procedure: as §1, §2, §3, §4

[4] = target: T4, recombinant rat GluN1/GluN2D (Rattus norvegicus, UniProt P35439+Q62645); test: Two-electrode voltage-clamp recordings in Xenopus laevis oocytes, GluN2D
T4 construct: expressed in transfected cells; host or cells: Xenopus laevis oocytes injected with cRNA (GluN1:GluN2 ratio 1:2)
Procedure: as §1, §2, §3, §4

[5] = target: T5, recombinant rat GluN1/GluN2A (Rattus norvegicus, UniProt Q00959); test: Two-electrode voltage-clamp recordings in Xenopus laevis oocytes, GluN2A; conditions: for GluN2A IC50: oocytes, 100 μM glutamate and 30 μM glycine
T5 construct: expressed in transfected cells; host or cells: Xenopus laevis oocytes injected with cRNA (GluN1:GluN2 ratio 1:2)
Procedure: as §1, §2, §3, §4

[6] = target: T6, recombinant rat GluN1/GluN2B (Rattus norvegicus, UniProt Q00960); test: Two-electrode voltage-clamp recordings in Xenopus laevis oocytes, GluN2B
T6 construct: expressed in transfected cells; host or cells: Xenopus laevis oocytes injected with cRNA (GluN1:GluN2 ratio 1:2)
Procedure: as §1, §2, §3, §4

[7] = target: T7, recombinant rat GluN1/GluN2C (Rattus norvegicus, UniProt Q00961); test: Two-electrode voltage-clamp recordings in Xenopus laevis oocytes, GluN2C
T7 construct: expressed in transfected cells; host or cells: Xenopus laevis oocytes injected with cRNA (GluN1:GluN2 ratio 1:2)
Procedure: as §1, §2, §3, §4

[8] = target: T8, recombinant rat GluN1/GluN2D (Rattus norvegicus, UniProt Q62645); test: Two-electrode voltage-clamp recordings in Xenopus laevis oocytes, GluN2D
T8 construct: expressed in transfected cells; host or cells: Xenopus laevis oocytes injected with cRNA (GluN1:GluN2 ratio 1:2)
Procedure: as §1, §2, §3, §4

[9] = oocytes, 100 μM glutamate and 30 μM glycine, read-out: GluN2C IC50
[10] = oocytes, 100 μM glutamate and 30 μM glycine, read-out: GluN2D IC50
[11] = 3 μM compound with 100 μM glutamate and 30 μM glycine, control set as 1, listed as (−)-67
[12] = oocytes, 100 μM glutamate and 30 μM glycine

T8 sequence (Q62645 28-1323, other chains not shown): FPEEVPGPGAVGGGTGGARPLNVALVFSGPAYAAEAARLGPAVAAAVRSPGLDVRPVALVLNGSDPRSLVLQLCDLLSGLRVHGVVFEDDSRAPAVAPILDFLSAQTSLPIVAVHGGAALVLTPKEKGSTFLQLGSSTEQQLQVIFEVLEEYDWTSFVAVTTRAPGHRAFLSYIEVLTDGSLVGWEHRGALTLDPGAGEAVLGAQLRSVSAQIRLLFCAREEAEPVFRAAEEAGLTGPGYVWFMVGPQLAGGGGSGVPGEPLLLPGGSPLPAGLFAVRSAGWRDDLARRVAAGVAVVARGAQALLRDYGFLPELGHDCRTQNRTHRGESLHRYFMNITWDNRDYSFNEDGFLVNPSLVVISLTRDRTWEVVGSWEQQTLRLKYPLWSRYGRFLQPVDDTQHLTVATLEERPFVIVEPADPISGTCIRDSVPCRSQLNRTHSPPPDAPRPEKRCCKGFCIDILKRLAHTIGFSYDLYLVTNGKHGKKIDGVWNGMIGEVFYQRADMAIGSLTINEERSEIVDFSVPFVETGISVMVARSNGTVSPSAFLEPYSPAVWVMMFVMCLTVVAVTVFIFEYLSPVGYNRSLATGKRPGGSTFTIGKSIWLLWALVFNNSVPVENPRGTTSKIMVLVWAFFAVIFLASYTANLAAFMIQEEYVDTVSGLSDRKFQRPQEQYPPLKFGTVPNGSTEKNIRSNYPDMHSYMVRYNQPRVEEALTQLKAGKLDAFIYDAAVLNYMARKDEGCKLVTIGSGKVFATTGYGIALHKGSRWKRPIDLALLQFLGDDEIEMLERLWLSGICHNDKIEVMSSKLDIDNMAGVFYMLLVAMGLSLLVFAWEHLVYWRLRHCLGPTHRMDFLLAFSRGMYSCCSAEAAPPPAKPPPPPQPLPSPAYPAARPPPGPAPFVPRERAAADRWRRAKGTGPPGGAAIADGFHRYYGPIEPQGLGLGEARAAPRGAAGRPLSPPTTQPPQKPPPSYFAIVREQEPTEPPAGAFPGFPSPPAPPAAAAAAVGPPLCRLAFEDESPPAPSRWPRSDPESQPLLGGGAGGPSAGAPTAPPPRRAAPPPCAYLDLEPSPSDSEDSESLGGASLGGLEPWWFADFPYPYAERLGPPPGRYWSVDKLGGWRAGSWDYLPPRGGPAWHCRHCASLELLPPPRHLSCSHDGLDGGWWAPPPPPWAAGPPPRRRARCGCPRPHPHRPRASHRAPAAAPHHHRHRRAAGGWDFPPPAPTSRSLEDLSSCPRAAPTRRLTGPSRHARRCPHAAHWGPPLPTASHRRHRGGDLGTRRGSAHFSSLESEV
T4 sequence (Q62645 28-1323, other chains not shown): as above
T3 sequence (Q00961 20-1237, other chains not shown): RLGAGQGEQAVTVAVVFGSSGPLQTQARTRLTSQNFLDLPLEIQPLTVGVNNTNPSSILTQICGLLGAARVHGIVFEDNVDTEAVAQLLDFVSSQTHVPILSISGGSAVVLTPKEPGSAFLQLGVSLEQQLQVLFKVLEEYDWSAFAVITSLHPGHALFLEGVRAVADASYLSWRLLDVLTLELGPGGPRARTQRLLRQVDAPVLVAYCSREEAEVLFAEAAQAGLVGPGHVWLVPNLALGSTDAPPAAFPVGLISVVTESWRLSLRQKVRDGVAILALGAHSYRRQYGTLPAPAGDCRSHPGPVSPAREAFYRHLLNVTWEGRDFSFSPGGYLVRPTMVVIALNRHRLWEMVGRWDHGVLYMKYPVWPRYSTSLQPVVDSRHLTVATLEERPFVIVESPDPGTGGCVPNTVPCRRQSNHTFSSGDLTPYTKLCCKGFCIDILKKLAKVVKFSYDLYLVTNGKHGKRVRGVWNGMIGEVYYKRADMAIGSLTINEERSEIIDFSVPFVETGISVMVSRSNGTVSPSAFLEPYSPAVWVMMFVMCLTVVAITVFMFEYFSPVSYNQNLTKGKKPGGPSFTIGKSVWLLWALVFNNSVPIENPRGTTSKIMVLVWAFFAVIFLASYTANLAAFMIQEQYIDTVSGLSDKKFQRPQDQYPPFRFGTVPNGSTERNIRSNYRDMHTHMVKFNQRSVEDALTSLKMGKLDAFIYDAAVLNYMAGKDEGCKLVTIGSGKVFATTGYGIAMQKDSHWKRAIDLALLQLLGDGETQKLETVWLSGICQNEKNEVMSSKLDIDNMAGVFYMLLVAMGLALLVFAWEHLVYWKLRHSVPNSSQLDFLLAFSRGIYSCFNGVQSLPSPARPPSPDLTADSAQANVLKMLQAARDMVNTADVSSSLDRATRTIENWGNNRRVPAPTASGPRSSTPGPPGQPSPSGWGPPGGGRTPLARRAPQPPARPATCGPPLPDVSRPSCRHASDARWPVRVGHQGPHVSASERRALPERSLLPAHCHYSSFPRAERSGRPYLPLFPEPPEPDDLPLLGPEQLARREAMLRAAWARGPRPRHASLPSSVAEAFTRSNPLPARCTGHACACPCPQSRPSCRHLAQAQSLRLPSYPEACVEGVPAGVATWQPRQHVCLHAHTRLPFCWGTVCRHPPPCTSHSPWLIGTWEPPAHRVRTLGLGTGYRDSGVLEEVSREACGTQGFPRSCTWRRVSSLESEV
T2 sequence (Q00960 27-1482, other chains not shown): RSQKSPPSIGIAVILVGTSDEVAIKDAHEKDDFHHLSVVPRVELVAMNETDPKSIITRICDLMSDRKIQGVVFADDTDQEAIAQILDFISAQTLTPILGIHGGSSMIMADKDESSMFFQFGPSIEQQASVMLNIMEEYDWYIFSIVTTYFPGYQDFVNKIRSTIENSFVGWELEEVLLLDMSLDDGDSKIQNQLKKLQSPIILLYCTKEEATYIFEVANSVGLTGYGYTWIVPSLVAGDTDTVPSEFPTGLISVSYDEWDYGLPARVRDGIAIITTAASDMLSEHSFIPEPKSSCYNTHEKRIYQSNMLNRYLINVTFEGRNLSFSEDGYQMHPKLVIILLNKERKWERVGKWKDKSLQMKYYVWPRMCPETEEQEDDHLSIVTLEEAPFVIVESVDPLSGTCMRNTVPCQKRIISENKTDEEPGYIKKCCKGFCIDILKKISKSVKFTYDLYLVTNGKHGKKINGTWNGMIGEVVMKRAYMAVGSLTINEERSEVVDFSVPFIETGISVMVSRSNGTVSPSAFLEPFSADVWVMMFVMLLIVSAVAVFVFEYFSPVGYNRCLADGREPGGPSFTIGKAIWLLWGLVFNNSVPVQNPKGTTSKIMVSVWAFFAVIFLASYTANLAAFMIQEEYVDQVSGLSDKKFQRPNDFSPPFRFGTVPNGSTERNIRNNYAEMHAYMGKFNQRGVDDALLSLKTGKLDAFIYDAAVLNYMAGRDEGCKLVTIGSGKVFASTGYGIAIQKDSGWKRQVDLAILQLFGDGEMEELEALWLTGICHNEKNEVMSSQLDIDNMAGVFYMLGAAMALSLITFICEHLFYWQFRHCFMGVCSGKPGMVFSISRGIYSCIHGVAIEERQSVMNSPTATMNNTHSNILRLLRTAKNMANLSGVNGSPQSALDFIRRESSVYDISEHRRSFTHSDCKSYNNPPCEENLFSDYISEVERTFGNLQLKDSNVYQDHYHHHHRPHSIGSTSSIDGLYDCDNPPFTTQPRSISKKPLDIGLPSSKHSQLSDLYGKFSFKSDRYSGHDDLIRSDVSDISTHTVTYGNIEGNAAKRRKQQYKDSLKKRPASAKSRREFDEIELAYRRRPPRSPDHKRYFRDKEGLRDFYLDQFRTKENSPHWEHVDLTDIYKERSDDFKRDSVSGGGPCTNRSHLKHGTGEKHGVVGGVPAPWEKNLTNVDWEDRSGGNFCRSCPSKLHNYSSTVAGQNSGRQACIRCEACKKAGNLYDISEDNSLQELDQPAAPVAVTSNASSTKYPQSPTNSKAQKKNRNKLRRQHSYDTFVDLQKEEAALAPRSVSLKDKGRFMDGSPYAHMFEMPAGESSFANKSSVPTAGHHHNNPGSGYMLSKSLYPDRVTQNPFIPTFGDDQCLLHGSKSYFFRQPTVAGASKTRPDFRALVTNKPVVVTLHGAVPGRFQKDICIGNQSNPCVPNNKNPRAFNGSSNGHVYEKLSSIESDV
T7 sequence (Q00961 20-1237, other chains not shown): as the sequence (Q00961 20-1237, other chains not shown) above

Work on `O=C(O)CCC(=O)N1N=C(c2c(-c3ccc(Cl)s3)c3ccccc3[nH]c2=O)CC1c1ccc(Cl)cc1` (stereo not shown) [997-108, 4-(5-(4-chlorophenyl)-3-(4-(5-chlorothiophen-2-yl)-2-oxo-1,2-dihydroquinolin-3-yl)-4,5-dihydro-1H-pyrazol-1-yl)-4-oxobutanoic acid] yielded a pIC50 [1] of 4.89, a pIC50 [2] of 4.64 and a pIC50 [3, 9] of 6.17. The pIC50 [4, 10] was 6.40.

`O=C(CC(F)(F)CO)N1N=C(c2c(-c3ccc(Cl)cc3)c3ccccc3[nH]c2=O)CC1c1ccc(Cl)cc1` (single isomer, unassigned; (-)) [(−)-997-67] was tested, and the “I3 μM/Icontrol (mean ± SEM, %) GluN2A” value [5, 11] was 100 ± 0.89%, the “I3 μM/Icontrol (mean ± SEM, %) GluN2B” value [6, 11] was 95 ± 2.2% and the pIC50 ([3]; mean IC50 with bottom and top 95% confidence interval, read-out: Avg. GluN2C IC50 (95% CI)) was 5.57. For the same compound, the pIC50 [3, 9] was 5.85, the “I3 μM/Icontrol (mean ± SEM, %) GluN2C” value [7, 11] was 42 ± 2.8% and the pIC50 ([4]; mean IC50 with bottom and top 95% confidence interval, read-out: Avg. GluN2D IC50 (95% CI)) was 6.01. For the same compound, the pIC50 [4, 10] was 6.21, the “I3 μM/Icontrol (mean ± SEM, %) GluN2D” value [8, 11] was 26 ± 3.2% and the “fold more potent than the (+)-enantiomer at GluN2D” value ([8]; (−)- versus (+)-enantiomer) was 6 fold.

With `Cc1c(C2=NNC(c3ccc(Cl)cc3)C2)c(=O)[nH]c2ccccc12` (stereo not shown) [997-77, 3-(5-(4-chlorophenyl)-4,5-dihydro-1H-pyrazol-3-yl)-4-methylquinolin-2(1H)-one] the “GluN2A IC50” value [5] was “NE (NE indicates less than 50% inhibition at 30 μM.)”, the “GluN2B IC50” value [6, 12] was “NE (NE indicates less than 50% inhibition at 30 μM.)” and the “GluN2C IC50” value [7, 12] was “NE (NE indicates less than 50% inhibition at 30 μM.)”. The “GluN2D IC50” value [8, 12] was “NE (NE indicates less than 50% inhibition at 30 μM.)”.

Work on `Cc1ccc2[nH]c(=O)c(C3=NN(C(=O)C(F)(F)CC(=O)O)C(c4ccc(Cl)cc4)C3)c(-c3ccc(Cl)cc3)c2c1` (stereo not shown) [997-90, 4-(5-(4-chlorophenyl)-3-(4-(4-chlorophenyl)-6-methyl-2-oxo-1,2-dihydroquinolin-3-yl)-4,5-dihydro-1H-pyrazol-1-yl)-3,3-difluoro-4-oxobutanoic acid] yielded a pIC50 [1] of 5.52, a pIC50 [2] of 5.52 and a pIC50 [3, 9] of 6.40. It also gave a pIC50 [4, 10] of 6.70.

With `O=C(O)CC(F)(F)C(=O)N1N=C(c2ccccc2-c2ccc(C(F)(F)F)cc2)CC1c1ccc(Cl)cc1` (stereo not shown) [997-124, 4-(5-(4-chlorophenyl)-3-(4′-(trifluoromethyl)-[1,1′-biphenyl]-2-yl)-4,5-dihydro-1H-pyrazol-1-yl)-3,3-difluoro-4-oxobutanoic acid] the “GluN2A IC50” value [5] was “NE (NE indicates less than 50% inhibition at 30 μM.)”, the pIC50 [2] was 4.83 and the pIC50 [3, 9] was 5.44. For the same compound, the pIC50 [4, 10] was 5.45.

In the case of `O=C(O)CC(F)(F)C(=O)N1N=C(c2ccccc2-c2cc(Cl)cc(Cl)c2)CC1c1ccc(Cl)cc1` (stereo not shown) [997-123, 4-(5-(4-chlorophenyl)-3-(3′,5′-dichloro-[1,1′-biphenyl]-2-yl)-4,5-dihydro-1H-pyrazol-1-yl)-3,3-difluoro-4-oxobutanoic acid], the “GluN2A IC50” value [5] was “NE (NE indicates less than 50% inhibition at 30 μM.)”, the pIC50 [2] was 4.81 and the pIC50 [3, 9] was 5.13. For the same compound, the pIC50 [4, 10] was 5.33.

For `O=C(O)CC(F)(F)C(=O)N1N=C(c2c(-c3ccc(Cl)cc3)c3ccccc3[nH]c2=O)CC1c1ccc(Cl)cc1` (stereo not shown) [997-74, 4-(5-(4-chlorophenyl)-3-(4-(4-chlorophenyl)-2-oxo-1,2-dihydroquinolin-3-yl)-4,5-dihydro-1H-pyrazol-1-yl)-3,3-difluoro-4-oxobutanoic acid], the pIC50 [1] was 4.96, the pIC50 [2] was 5.16 and the “selectivity at GluN2D- over GluN2A-containing receptor” value [8] was “approximately 220 fold”. For the same compound, the “2A IC50 / 2D IC50” value ([8]; ratio of IC50 values) was 220 and the “2B IC50 / 2D IC50” value ([8]; ratio of IC50 values) was 138.
